Source: patent US11166954B2, “Dihydropyrimidine compound and preparation method and use thereof” (SICHUAN KELUN-BIOTECH BIOPHARMACEUTICAL CO., LTD., priority 2016, dated 2021)
Where two headings read alike, the source gives them in different places.

What was measured:
[1] = Cytotoxicity detection (CellTiter-Glo); assay type: cell-based; conditions: human, HepG2.2.15 cells, highest concentration 150 μM
Method: The test compounds were diluted to 30 mM with DMSO, with 30 mM as the highest concentration, the compounds were subjected to three-fold serial dilution to various concentrations. 0.2 μL of the compounds at various concentrations were added to a 384-well plate, HepG2.2.15 cells having a concentration of 2000 cells per 50 μL were added to each well, and the highest concentration of the test compounds was 150 μM. 1 μL of DMSO was added to corresponding wells for control. The plate was incubated in a 5% CO2 incubator at 37° C. for 4 days; and 50 μL of CellTiter-Glo was added to each well after 4 days. The plate was read for detection, and a half cytotoxic concentration (CC50) was calculated.

[2] = system: hepatitis type B virus (HBV); assay: Inhibition of HBV DNA replication in HepG2.2.15 cells; assay type: cell-based; conditions: HepG2.2.15, HBV DNA replication
Method: The inhibitory effect of the compounds of the present invention on hepatitis type B virus (HBV) was tested. Cytotoxicity and effects on nucleic acid (DNA) replication level of the virus (HBV) of the compounds of the present invention were tested at a virus-cell level.
HepG2.2.15 cells in the logarithmic growth phase were plated in a 96-well plate at a cell concentration of 40 cells per μL. The cells were incubated in a 5% CO2 incubator at 37° C. for 3 days; and the culture medium was replaced with a new one ([…]) before adding compounds. The concentration of the stock solution of each Example compound is 200 μM.

[3] = molecular target: T1, hERG potassium ion channel (Homo sapiens, UniProt Q12809); assay: Predictor hERG Fluorescence Polarization Assay; assay type: binding; conditions: for IC50: hERG fluorescence polarization
T1 construct: purchased
Excerpt: In cardiac muscle cells, hERG (human Ether-a-go-go Related Gene) coded potassium channel mediates delayed rectifier potassium currents (IKr). IKr inhibition is the most important mechanism of QT interval prolongation caused by a drug.
Employing the Predictor™ hERG Fluorescence Polarization Assay, the effect of the compounds on a hERG potassium ion channel was detected.

[4] = In vivo pharmacokinetics (PK) in rats; conditions: male, SD, rat; for Kp: liver/plasma, 2 mg/kg
Method: The test compounds were administrated to male SD rats by intravenous (iv) and by gavage (po), respectively, the doses of the iv and po administration were respectively 1 mg/kg and 2 mg/kg, the solvent system for iv administration was 5% DMSO:5% solutol:90% physiological saline, and the solvent system for po administration was 0.5% MC. Blood was collected at multiple time points after iv administration and po administration for the PK study. Plasma samples and liver tissue samples were subjected to protein precipitation, followed by LC-MS/MS analysis. The mass spectrometer was API 5500, and the liquid chromatograph is a Waters ACQUITY I CLASS system; the chromatographic column was an Agela ASB C18 column (2.1 mm×50 mm, 1.9 μm); mobile phase A was water+0.1% formic acid, and phase B was acetonitrile; the flow rate was 0.4 mL/min, and the column temperature was 40° C. The ion source was an ESI source in a positive ion mode, and the scanning manner is multiple reaction monitoring (MRM).

T1 sequence (Q12809 whole entry): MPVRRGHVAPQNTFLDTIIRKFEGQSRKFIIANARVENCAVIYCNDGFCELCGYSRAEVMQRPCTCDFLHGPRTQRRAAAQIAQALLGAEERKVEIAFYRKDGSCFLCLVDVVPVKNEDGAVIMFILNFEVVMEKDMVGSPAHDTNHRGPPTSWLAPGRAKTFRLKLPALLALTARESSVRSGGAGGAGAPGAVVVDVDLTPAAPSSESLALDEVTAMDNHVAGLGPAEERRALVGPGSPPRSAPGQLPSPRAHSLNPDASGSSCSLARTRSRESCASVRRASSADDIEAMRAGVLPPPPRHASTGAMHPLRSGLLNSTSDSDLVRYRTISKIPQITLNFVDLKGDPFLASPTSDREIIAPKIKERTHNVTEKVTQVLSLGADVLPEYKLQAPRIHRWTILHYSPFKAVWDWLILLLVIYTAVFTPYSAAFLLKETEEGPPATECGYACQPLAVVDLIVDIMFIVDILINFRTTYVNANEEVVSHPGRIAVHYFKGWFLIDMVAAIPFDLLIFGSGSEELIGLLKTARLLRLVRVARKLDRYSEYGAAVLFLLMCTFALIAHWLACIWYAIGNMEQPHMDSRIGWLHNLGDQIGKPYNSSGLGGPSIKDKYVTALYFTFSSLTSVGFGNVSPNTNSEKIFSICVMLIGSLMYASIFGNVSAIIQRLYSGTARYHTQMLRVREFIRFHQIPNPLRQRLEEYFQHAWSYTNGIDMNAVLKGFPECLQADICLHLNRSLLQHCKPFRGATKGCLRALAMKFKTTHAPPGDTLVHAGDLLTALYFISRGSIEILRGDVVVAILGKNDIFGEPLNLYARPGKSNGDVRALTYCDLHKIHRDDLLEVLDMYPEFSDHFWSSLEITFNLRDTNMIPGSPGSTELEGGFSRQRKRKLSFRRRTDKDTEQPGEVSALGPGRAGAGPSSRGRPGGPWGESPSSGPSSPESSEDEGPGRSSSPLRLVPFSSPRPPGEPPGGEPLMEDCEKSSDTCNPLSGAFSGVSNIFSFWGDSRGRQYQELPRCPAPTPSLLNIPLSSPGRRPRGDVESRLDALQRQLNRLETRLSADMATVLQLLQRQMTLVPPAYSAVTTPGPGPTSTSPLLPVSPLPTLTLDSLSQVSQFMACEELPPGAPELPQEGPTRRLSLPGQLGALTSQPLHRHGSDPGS

| SMILES | CC50 at 4 days [1] [nM] | EC50 [2] [nM] | IC50 [3] [nM] | other results |
| --- | --- | --- | --- | --- |
| CCOC(=O)C1=C(CN2CCC(O)C(F)(F)C2)NC(c2nccs2)=N[C@H]1c1ccc(F)cc1Cl (single isomer, unassigned) [Isomer B of Example 4] | 51300 | 34.7 | > 10000 | – |
| CCOC(=O)C1=C(CN2CC(F)(F)C2)NC(c2nccs2)=N[C@H]1c1ccc(F)cc1Cl [10-7 of Example 6, (R)-ethyl 4-(2-chloro-4-fluorophenyl)-6-((3,3-difluoroazetidin-1-yl)methyl)-2-(thiazol-2-yl)-1,4-dihydropyrimidine-5-carboxylate] | 130000 | 102 | – | – |
| CCOC(=O)C1=C(CN2C[C@@H](O)[C@H](F)C2)NC(c2nccs2)=N[C@H]1c1ccc(F)cc1Cl [10-34 of Example 9, (R)-ethyl 4-(2-chloro-4-fluorophenyl)-6-(((3R,4R)-3-fluoro-4-hydroxypyrrolidin-1-yl)methyl)-2-(thiazol-2-yl)-1,4-dihydropyrimidine-5-carboxylate] | 79600 | 13.2 | – | – |
| CCOC(=O)C1=C(CN2C[C@@H](F)[C@H](OCC(=O)O)C2)NC(c2nccs2)=N[C@H]1c1ccc(F)cc1Cl [10-36 of Example 10, 2-(((3R,4R)-1-(((R)-6-(2-chloro-4-fluorophenyl)-5-(ethoxycarbonyl)-2-(thiazol-2-yl)-3,6-dihydropyrimidin-4-yl)methyl)-4-fluoropyrrolidin-3-yl)oxy)acetic acid] | > 150000 | 98.1 | > 10000 | – |
| CCOC(=O)C1=C(CN2CC(O)C(F)(F)C2)NC(c2nccs2)=N[C@H]1c1ccc(F)cc1Cl (stereo partly drawn) [10-40 of Example 11, (4R)-ethyl 4-(2-chloro-4-fluorophenyl)-6-((3,3-difluoro-4-hydroxypyrrolidin-1-yl)methyl)-2-(thiazol-2-yl)-1,4-dihydropyrimidine-5-carboxylate] | 73500 | 6.2 | > 10000 | – |
| CCOC(=O)C1=C(CN2CC(OCC(=O)O)C(F)(F)C2)NC(c2nccs2)=N[C@H]1c1ccc(F)cc1Cl (stereo partly drawn) [10-42 of Example 12, 2-((1-(((R)-6-(2-chloro-4-fluorophenyl)-5-(ethoxycarbonyl)-2-(thiazol-2-yl)-3,6-dihydropyrimidin-4-yl)methyl)-4,4-difluoropyrrolidin-3-yl)oxy)acetic acid] | > 150000 | 164 | > 10000 | – |
| CCOC(=O)C1=C(CN2CCC(O)C(F)(F)C2)NC(c2nccs2)=NC1c1ccc(F)cc1Cl (centres unmarked) [10-88 of Example 1, ethyl 4-(2-chloro-4-fluorophenyl)-6-((3,3-difluoro-4-hydroxypiperidin-1-yl)methyl)-2-(thiazol-2-yl)-1,4-dihydropyrimidine-5-carboxylate] | 61100 | 24.7 | > 10000 | – |
| CCOC(=O)C1=C(CN2CCC(O)C(F)(F)C2)NC(c2nccs2)=NC1c1ccc(F)cc1Br (centres unmarked) [10-93 of Example 2, ethyl 4-(2-bromo-4-fluorophenyl)-6-((3,3-difluoro-4-hydroxypiperidin-1-yl)methyl)-2-(thiazol-2-yl)-1,4-dihydropyrimidine-5-carboxylate] | – | – | > 10000 | – |
| CCOC(=O)C1=C(CN2CCC(OCC(=O)O)C(F)(F)C2)NC(c2nccs2)=NC1c1ccc(F)cc1Cl (centres unmarked) [10-95 of Example 5, 2-((1-((6-(2-chloro-4-fluorophenyl)-5-(ethoxycarbonyl)-2-(thiazol-2-yl)-3,6-dihydropyrimidin-4-yl)methyl)-3,3-difluoropiperidin-4-yl)oxy)acetic acid] | 131000 | 314 | > 10000 | – |
| CCOC(=O)C1=C(CN2CC(COCC(=O)O)CC(F)(F)C2)NC(c2nccs2)=N[C@H]1c1ccc(F)cc1Cl (stereo partly drawn) [10-136 of Example 16, 2-((1-(((R)-6-(2-chloro-4-fluorophenyl)-5-(ethoxycarbonyl)-2-(thiazol-2-yl)-3,6-dihydropyrimidin-4-yl)methyl)-5,5-difluoropiperidin-3-yl)methoxy)acetic Acid] | 122000 | 110 | – | – |
| CCOC(=O)C1=C(CN2CCOCC2COCC(=O)O)NC(c2nccs2)=N[C@H]1c1ccc(F)cc1Cl (stereo partly drawn) [10-162 of Example 15, 2-((4-(((R)-6-(2-chloro-4-fluorophenyl)-5-(ethoxycarbonyl)-2-(thiazol-2-yl)-3,6-dihydropyrimidin-4-yl)methyl)morpholin-3-yl)methoxy)acetic Acid] | > 150000 | 213 | – | – |
| CCOC(=O)C1=C(CN2CCOC(/C=C/C(=O)O)C2)NC(c2nccs2)=N[C@H]1c1ccc(F)cc1Cl (stereo partly drawn) [10-180 of Example 14, (E)-3-(4-(((R)-6-(2-chloro-4-fluorophenyl)-5-(ethoxycarbonyl)-2-(thiazol-2-yl)-3,6-dihydropyrimidin-4-yl)methyl)morpholin-2-yl)acrylic Acid] | > 150000 | 23.5 | – | – |
| CCOC(=O)C1=C(CN2CCOCC2/C=C/C(=O)O)NC(c2nccs2)=N[C@H]1c1ccc(F)cc1Cl (stereo partly drawn) [10-182 of Example 13, (E)-3-(4-(((R)-6-(2-chloro-4-fluorophenyl)-5-(ethoxycarbonyl)-2-(thiazol-2-yl)-3,6-dihydropyrimidin-4-yl)methyl)morpholin-3-yl)acrylic Acid] | > 150000 | 61.8 | – | – |
| COC(=O)C1=C(CN2CCO[C@H](/C=C/C(=O)O)C2)NC(c2nccs2)=N[C@H]1c1ccc(F)cc1Br [10-229 of Example 28, (E)-3-((R)-4-(((R)-6-(2-bromo-4-fluorophenyl)-5-(methoxycarbonyl)-2-(thiazol-2-yl)-3,6-dihydropyrimidin-4-yl)methyl)morpholin-2-yl)acrylic Acid] | > 150000 | 8.3 | – | – |
| COC(=O)C1=C(CN2CCO[C@H](/C=C/C(=O)O)C2)NC(c2nccs2)=N[C@H]1c1ccc(F)c(F)c1Cl [10-237 of Example 30, (E)-3-((R)-4-(((R)-6-(2-chloro-3,4-difluorophenyl)-5-(methoxycarbonyl)-2-(thiazol-2-yl)-3,6-dihydropyrimidin-4-yl)methyl)morpholin-2-yl)acrylic Acid] | > 150000 | 10.9 | – | – |
| COC(=O)C1=C(CN2CCO[C@H](/C=C/C(=O)O)C2)NC(c2nccs2)=N[C@H]1c1ccc(F)c(F)c1Br [10-238 of Example 31, (E)-3-((R)-4-(((R)-6-(2-bromo-3,4-difluorophenyl)-5-(methoxycarbonyl)-2-(thiazol-2-yl)-3,6-dihydropyrimidin-4-yl)methyl)morpholin-2-yl)acrylic Acid] | > 150000 | 10.2 | – | – |
| COC(=O)C1=C(CN2CCO[C@H](/C=C/C(=O)O)C2)NC(c2nccs2)=N[C@H]1c1ccc(F)c(F)c1C [10-239 of Example 32, (E)-3-((R)-4-(((S)-6-(3,4-difluoro-2-methylphenyl)-5-(methoxycarbonyl)-2-(thiazol-2-yl)-3,6-dihydropyrimidin-4-yl)methyl)morpholin-2-yl)acrylic Acid] | > 150000 | 28.9 | – | – |
| COC(=O)C1=C(CN2CCO[C@H](/C=C/C(=O)O)C2)NC(c2nccs2)=N[C@H]1c1cccc(F)c1Cl [10-240 of Example 33, (E)-3-((R)-4-(((R)-6-(2-chloro-3-fluorophenyl)-5-(methoxycarbonyl)-2-(thiazol-2-yl)-3,6-dihydropyrimidin-4-yl)methyl)morpholin-2-yl)acrylic Acid] | > 150000 | 21.1 | – | – |
| CCOC(=O)C1=C(CN2CCO[C@H](CCC(=O)O)C2)NC(c2nccs2)=N[C@H]1c1ccc(F)cc1Cl [Control compound 2, reference compound] | – | 89 | 1000 to 10000 | inhibitory effect on the hERG potassium ion channel (in words) ([3]; criterion: IC50 greater than 10 μM = no inhibitory effect): significant inhibitory effect; bioavailability ([4]; plasma, po, by gavage, 2.00 mg/kg, read-out: bioavailability (F)): 20.9%; Kp ([4]; po, po, 2.00 mg/kg, AUCINF liver/plasma, read-out: amount of exposure in liver relative to that in plasma): ~1.5; Kp ([4]; po, po, 2.00 mg/kg, Cmax liver/plasma, read-out: blood-drug concentration in liver relative to that in plasma): ~0.5; AUC(0-inf) ([4]; iv, 1.00 mg/kg, plasma): 2150 ng·h/mL; Cmax ([4]; iv, 1.00 mg/kg, plasma): 2470 ng/mL; AUC(0-inf) ([4]; po, 2.00 mg/kg, liver): 1490 ng·h/mL; Cmax ([4]; po, 2.00 mg/kg, liver): 547 ng/mL; AUC(0-inf) ([4]; po, 2.00 mg/kg, plasma): 897 ng·h/mL; Cmax ([4]; po, 2.00 mg/kg, plasma): 1250 ng/mL |
